Broadly, the logD is lipophilicity at a set pH, counting ionised and neutral species.

Data set [1] can be described thus: logD(7.4) determination (n-octanol / phosphate buffer distribution). It counts as physicochemical. The settings on record: n-octanol / 0.05 M phosphate buffer pH 7.4; mean ± SD. The procedure:
Since high lipophilicity of peptidic radiotracers can lead to a high plasma protein binding, resulting in unspecific organ and high liver uptakes, thus negatively impact tumor visualization, the lipophilicity of the HBPLs was determined to get an approximate estimation of the in vivo biodistribution behavior of the radioligands. Therefore, the logD(7.4) values of the SiFAlin-modified HBPLs [^18F]1–[^18F]6 were determined via their distribution coefficient between n-octanol and phosphate buffer at pH 7.4.
The radiotracer solutions were first diluted with 0.9% NaCl solution to give a final EtOH concentration of <10%. A total of 5 MBq of the respective radiotracer in solution was added to 1.6 mL of a mixture of n-octanol and 0.05 M phosphate buffer (pH = 7.4) (v/v, 1/1), and the solution was vigorously shaken for 5 min. Subsequently, the phases were separated by centrifugation at 13.4 rpm for 2 min, and 100 μL of organic and aqueous phases were collected. The activity of each sample was measured using a gamma counter. The lipophilicity of each compound was determined in triplicate in three independent experiments.

Data set [2] is described as follows: Stability of radiotracers in human serum (radio-HPLC). It counts as in vitro ADME. The note with it: 37 °C, 120 min, mean ± SD, read-out: Stability: intact radiotracer after 120 min of incubation in human serum. The procedure: In addition to the investigation of the radiotracers’ lipophilicity, their stability in human serum was evaluated in order to determine possible stability issues of the newly developed agents. For this purpose, the respective ^18F-labeled HBPLs were incubated in human serum at 37 °C for 120 min. The results of these experiments are summarized in Table 1, and the corresponding radio-HPLC chromatograms for [^18F]2 as representative examples for all compounds studied are depicted in Figure 3A (see Supplementary Materials, Figure S91 for the results obtained for the other radioligands). In Figure 3B, the portions of intact radiotracer over the course of the stability experiments are depicted.
The radiotracer solutions were first diluted with 0.9% NaCl solution to give a final EtOH concentration of <10%. Then, 6 × 25 μL radiotracer solution was added to 6 × 100 μL human serum and incubated at 37°C for 120 min. At defined time points (5, 15, 30, 60, 90 and 120 min), 125 μL EtOH was added to one of the mixtures and the precipitation of serum proteins was supported by ice-cooling for 2 min. After centrifugation at 13.4 rpm for 2 min, the supernatant was analyzed by analytical radio-HPLC (0–100% MeCN + 0.1% TFA in 5 min). The experiment was performed for each compound trice by three independent experiments.

With `CCCC[C@H](NC(=O)CNC(=O)CNC(=O)CCOCCOCCC(=O)NCCCN(CCCNC(=O)CCOCCOCCC(=O)NCCCC[C@@H]1NC(=O)[C@@H](Cc2ccccc2)NC(=O)[C@H](CC(=O)O)NC(=O)CNC(=O)[C@H](CCCNC(=N)N)NC1=O)CC(=O)N[C@@H](CCCCNC(=O)CCC[N+](C)(C)Cc1ccc([Si](F)(C(C)(C)C)C(C)(C)C)cc1)C(N)=O)C(=O)N[C@H]1CC(=O)NCCCC[C@@H](C(N)=O)NC(=O)[C@H](Cc2c[nH]c3ccccc23)NC(=O)[C@H](CCCNC(=N)N)NC(=O)[C@@H](Cc2ccccc2)NC(=O)[C@H](Cc2c[nH]cn2)NC1=O` [[^18F]1], the logD in data set [1] is -1.08 ± 0.07. The remaining at 2 h in data set [2] was 87 ± 2.3%.

As for `CCCC[C@H](NC(=O)CNC(=O)CNC(=O)CCOCCOCCOCCOCCOCCOCCC(=O)NCCCN(CCCNC(=O)CCOCCOCCOCCOCCOCCOCCC(=O)NCCCC[C@@H]1NC(=O)[C@@H](Cc2ccccc2)NC(=O)[C@H](CC(=O)O)NC(=O)CNC(=O)[C@H](CCCNC(=N)N)NC1=O)CC(=O)N[C@@H](CCCCNC(=O)CCC[N+](C)(C)Cc1ccc([Si](F)(C(C)(C)C)C(C)(C)C)cc1)C(N)=O)C(=O)N[C@H]1CC(=O)NCCCC[C@@H](C(N)=O)NC(=O)[C@H](Cc2c[nH]c3ccccc23)NC(=O)[C@H](CCCNC(=N)N)NC(=O)[C@@H](Cc2ccccc2)NC(=O)[C@H](Cc2c[nH]cn2)NC1=O` [[^18F]3], in data set [1], the logD was -1.15 ± 0.01. Besides, the remaining at 2 h in data set [2] worked out at 81.4 ± 2.9%.

Compound `CCCC[C@H](NC(=O)CNC(=O)CNC(=O)COCC(=O)NCCCN(CCCNC(=O)COCC(=O)NCCCC[C@@H]1NC(=O)[C@@H](Cc2ccccc2)NC(=O)[C@H](CC(=O)O)NC(=O)CNC(=O)[C@H](CCCNC(=N)N)NC1=O)CC(=O)N[C@@H](CCCCNC(=O)CCC[N+](C)(C)Cc1ccc([Si](F)(C(C)(C)C)C(C)(C)C)cc1)C(N)=O)C(=O)N[C@H]1CC(=O)NCCCC[C@@H](C(N)=O)NC(=O)[C@H](Cc2c[nH]c3ccccc23)NC(=O)[C@H](CCCNC(=N)N)NC(=O)[C@@H](Cc2ccccc2)NC(=O)[C@H](Cc2c[nH]cn2)NC1=O` [[^18F]5] had a logD in data set [1] of -1.21 ± 0.01. In addition, the remaining at 2 h in data set [2] worked out at 83.2 ± 2.4%.

Turning to `CCCC[C@H](NC(=O)CNC(=O)CNC(=O)[C@H](CCC(=O)O)NC(=O)CNC(=O)[C@H](CCC(=O)O)NC(=O)CNC(=O)[C@H](CCC(=O)O)NC(=O)C(=O)NCCCN(CCCNC(=O)C(=O)N[C@@H](CCC(=O)O)C(=O)NCC(=O)N[C@@H](CCC(=O)O)C(=O)NCC(=O)N[C@@H](CCC(=O)O)C(=O)NCCCC[C@@H]1NC(=O)[C@@H](Cc2ccccc2)NC(=O)[C@H](CC(=O)O)NC(=O)CNC(=O)[C@H](CCCNC(=N)N)NC1=O)CC(=O)N[C@@H](CCCCNC(=O)CCC[N+](C)(C)Cc1ccc([Si](F)(C(C)(C)C)C(C)(C)C)cc1)C(N)=O)C(=O)N[C@H]1CC(=O)NCCCC[C@@H](C(N)=O)NC(=O)[C@H](Cc2c[nH]c3ccccc23)NC(=O)[C@H](CCCNC(=N)N)NC(=O)[C@@H](Cc2ccccc2)NC(=O)[C@H](Cc2c[nH]cn2)NC1=O` [[^18F]6], in data set [1], the logD is -1.52 ± 0.01. The remaining at 2 h in data set [2] amounted to 82.7 ± 1.8%.

Source of the values: publication PMC8228600, “Design, Synthesis, In Vitro and In Vivo Evaluation of Heterobivalent SiFAlin-Modified Peptidic Radioligands Targeting Both Integrin αvβ3 and the MC1 Receptor—Suitable for the Specific Visualization of Melanomas?” (Pharmaceuticals, 2021).
